Consider four compounds from patent US20250201406A1, “METHOD AND BIOMARKER FOR PREDICTING SEVERITY OF COVID-19 DISEASE AND METHOD FOR THERAPEUTIC INTERVENTION IN COVID-19 DISEASE” (priority 2022, published 2025).

In one experiment the test system is CD8^+TM. In words: SARS-CoV-2 specific peptide activation of COVID(+) PBMCs in presence or absence of Mdivi-1, flow cytometry of CD8+TM. Type of experiment: cell-based, human. Particulars: 20 μM Mdivi-1 vs vehicle, 96 hr, CD8a SARS-CoV-2 megapool peptide, PBMCs from COVID-19(+) patients. On the procedure: (§1) PBMCs (0.5×10^6 cells) were first stained with live/dead in PBS for 15 min, washed with Flow Cytometry Staining Buffer (FACS Buffer), and stained with surface markers in ice-cold FACS buffer at 4° C. for 30 min. PBMCs were then washed twice with FACS buffer and stained with secondary antibodies for 15 minutes. Samples were fixed and permeabilized using Fixation/Permeabilization buffer (20 min) at room temperature and washed with ice-cold FACS buffer. PBMCs were then stained with intracellular antibodies at 37° C. for 45 min in permeabilization buffer. Samples were washed once with permeabilization buffer before being resuspended in FACS buffer for flow cytometric analysis using Cytoflex system. Data was then analyzed by Flowjo™v10.
(§2) PBMCs (5×10^5) were stimulated with […] of CD8a SARS-CoV-2 megapool peptide^92 in the presence of absence of 20 μM Mdivi-1 at 37° C., 5% C02 for 96 hr.
(§3) FIGS. 15A-F. Mitophagy inhibition restores CD8^+Tc and SARS-CoV-2 specific CD8^+Tc function. PBMCs from 5 COVID-19(+) patients were activated with SARS-CoV-2 megapool CD8a peptide (see Methods) in the presence or absence of MDIVI-1 (20 μM). One sample was excluded from analysis due to critically low CD8^+Tc count. […] Two-tailed student's T-test was used. *p<0.05, **p<0.01, and ***p<0.001.

In a further experiment the test system is SARS-CoV-2. Particulars: virally infected cells; cited from earlier work.
The subject of another experiment is CD8^+Tc. In words: SARS-CoV-2 specific peptide activation of COVID(+) PBMCs in presence or absence of Mdivi-1, flow cytometry of CD8+Tc. Type of experiment: cell-based, human. Particulars: 20 μM Mdivi-1 vs vehicle, 96 hr, CD8a SARS-CoV-2 megapool peptide, PBMCs from COVID-19(+) patients. The protocol: as §1, §2, §3
Experiment [1] concerns COVID-19. Particulars: COVID-19 patients, stage-2 clinical trial; cited from earlier work.
The test system of experiment [2] is COVID-19. To be noted: randomized clinical trials; cited from earlier work.
Experiment [3] deals with SARS-CoV-2 specific CD8^+Tc. Particulars: through normalizing cellular metabolism; cited from earlier work.

As for `COc1cc(-n2c(=S)[nH]c3ccccc3c2=O)c(Cl)cc1Cl` [Mdivi-1], in the experiment with CD8^+TM, the “Glut-1 expression in CD8^+TM” value is reported as “reduced”. The “CD8^+TM proliferation (Ki-67)” value in the experiment on CD8^+TM (FIG. 15E) is on record as “augmented”. For the same compound, the SARS-CoV-2 replication result with SARS-CoV-2 is recorded as “effectively reduce”. Further, the “generation of SARS-CoV-2-specific CD137^+ cells amongst CD8+Tc” value with CD8^+Tc (FIG. 15B) is “improved”. Besides, the “proliferation (Ki-67^+ cells) of CD8+Tc” value with CD8^+Tc (FIG. 15C) is given as “induced”. In addition, the “IFNy-secreting capacity of CD8^+Tc” value with CD8^+Tc (FIG. 15D) is listed as “induced”.

Consider `O=CC[C@@H](O)[C@H](O)[C@H](O)CO` [2-DG, 2-deoxy-glucose], for which the patient outcomes with COVID-19 [1] was “successful in improving patient outcomes”.

Take `CCN(CCO)CCCC(C)Nc1ccnc2cc(Cl)ccc12` (stereo not drawn) [Hydroxychloroquine]: in the experiment on COVID-19 [2], the “efficacy in COVID-19” value is “ineffective”.

For “cyclophilin A: found to restore SARS-CoV-2 specific CD8+Tc function through normalizing cellular metabolism”, the “SARS-CoV-2 specific CD8^+Tc function” value in experiment [3] is “restore”.
